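In this assay, cells in 96-well plates receive the compound at five concentrations for 48 hours. Endpoints are linearly interpolated between the surrounding concentrations. At the GI50, growth is halved.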 Activity calls are given as the source filed them. Rule as the data show it: active = GI50 up to about 1.1 µM and inactive = higher.
What was measured:
Assay in all cases: DTP human tumour cell line panel, 48 h
[1] = system: SF-295
[2] = system: TK-10
[3] = system: 786-0
[4] = system: UACC-257
[5] = system: ACHN
[6] = system: RPMI-8226
[7] = system: HOP-92
[8] = system: HCC 2998
[9] = system: EKVX
[10] = system: SW-620
[11] = system: Malme-3M
[12] = system: RXF 393
[13] = system: HCT-116
[14] = system: SK-MEL-5
[15] = system: DU-145
[16] = system: MDA-N
[17] = system: PC-3
[18] = system: NCI/ADR-RES

| Compound | GI50 [1] | GI50 [2] | GI50 [3] | GI50 [4] | GI50 [5] | GI50 [6] | GI50 [7] | GI50 [8] | GI50 [9] | GI50 [10] | GI50 [11] | GI50 [12] | GI50 [13] | GI50 [14] | GI50 [15] | GI50 [16] | GI50 [17] | GI50 [18] |
| --- | --- | --- | --- | --- | --- | --- | --- | --- | --- | --- | --- | --- | --- | --- | --- | --- | --- | --- |
| Cc1c(C(=O)CC(=O)C(=O)Nc2cc(Cl)ccc2Cl)[n+]([O-])c2ccccc2[n+]1[O-] | > 100 µM (inactive) | > 100 µM (inactive) | 61.5 µM (inactive) | 34.8 µM (inactive) | > 100 µM (inactive) | 21.7 µM (inactive) | > 100 µM (inactive) | 37.7 µM (inactive) | 37.8 µM (inactive) | 36 µM (inactive) | 43.6 µM (inactive) | 53.8 µM (inactive) | 35.4 µM (inactive) | 32.6 µM (inactive) |  |  |  |  |
| Cc1cc(S(=O)(=O)[N-]/C(=N/S(=O)(=O)c2cc(Cl)sc2Cl)[n+]2ccc(N(C)C)cc2)c(S)cc1Cl | 47.9 µM (inactive) | 49.7 µM (inactive) | 68.2 µM (inactive) | > 100 µM (inactive) | 67 µM (inactive) | 47.5 µM (inactive) |  | 60.7 µM (inactive) | > 100 µM (inactive) | 49.9 µM (inactive) |  | 46.3 µM (inactive) | 24.1 µM (inactive) | 77.8 µM (inactive) | 39.4 µM (inactive) | 34 µM (inactive) | 53.8 µM (inactive) | > 100 µM (inactive) |
| c1csc(-c2ccc(-c3ccc(-c4ccc(-c5cccs5)s4)s3)s2)c1 | 40.6 µM (inactive) | > 100 µM (inactive) | > 100 µM (inactive) | > 100 µM (inactive) | > 100 µM (inactive) | > 100 µM (inactive) | > 100 µM (inactive) | > 100 µM (inactive) | > 100 µM (inactive) | > 100 µM (inactive) |  | 56.5 µM (inactive) | > 100 µM (inactive) | > 100 µM (inactive) | > 100 µM (inactive) |  |  | > 100 µM (inactive) |
| CCCCCCCCCCCCCCCCOP(=O)(O)OCC(N)C(=O)O (stereo unspecified) | 14.5 µM (inactive) | 5.02 µM (inactive) | 21.5 µM (inactive) | 52.5 µM (inactive) | 16.3 µM (inactive) | 18.6 µM (inactive) | 19.5 µM (inactive) | 15.1 µM (inactive) | 54.1 µM (inactive) | 17 µM (inactive) | 63.2 µM (inactive) | 23.8 µM (inactive) | 12.5 µM (inactive) | 17.8 µM (inactive) | 87.3 µM (inactive) | 23.5 µM (inactive) | 12 µM (inactive) | 33.3 µM (inactive) |
| O=C(Nc1ccc(N=C=S)cc1Cl)c1cc(Br)cc(Br)c1O | 31.1 µM (inactive) | 27.9 µM (inactive) | 26.3 µM (inactive) | 21.4 µM (inactive) | 27 µM (inactive) |  | 14.1 µM (inactive) |  |  | 27.3 µM (inactive) | 37.8 µM (inactive) | 43.9 µM (inactive) | 16.3 µM (inactive) | 23.9 µM (inactive) | 15.9 µM (inactive) |  | 19 µM (inactive) | 24.2 µM (inactive) |
| Cc1ccc(N/N=C/C2=CC(C)(C)C(C#N)(C#N)C(O)=C2C#N)cc1 | 69.3 µM (inactive) | 99.5 µM (inactive) | 66.4 µM (inactive) | 38.8 µM (inactive) | 45.5 µM (inactive) | 22.2 µM (inactive) | 5.89 µM (inactive) | 37.8 µM (inactive) | 61.1 µM (inactive) | 24.8 µM (inactive) | > 100 µM (inactive) | 33.2 µM (inactive) | 35.4 µM (inactive) | 40.7 µM (inactive) | 66.7 µM (inactive) | 54.8 µM (inactive) | 7.23 µM (inactive) | 56 µM (inactive) |
| O=[N+]([O-])/C(C(Cl)=C(Cl)Cl)=C(/Nc1ccccc1)SCc1ccccc1 | 34.4 µM (inactive) | 29.8 µM (inactive) | 17.3 µM (inactive) | 24 µM (inactive) | 28.3 µM (inactive) | 14.1 µM (inactive) | 31 µM (inactive) | 24.3 µM (inactive) | 21 µM (inactive) | 26.7 µM (inactive) | 16.4 µM (inactive) | 19.4 µM (inactive) | 16.6 µM (inactive) | 21.6 µM (inactive) | 23.6 µM (inactive) | 16.7 µM (inactive) | 24.5 µM (inactive) | 16.2 µM (inactive) |
| CC(C)(C)[Si](C)(C)OCC1OC(n2cnc3c(=O)[nH]c(N)nc32)C(O[Si](C)(C)C(C)(C)C)C1O[Si](C)(C)C(C)(C)C (stereo unspecified) | 1.55 µM (inactive) | 2.34 µM (inactive) | 1.67 µM (inactive) | 1.78 µM (inactive) | 2.08 µM (inactive) | 1.14 µM (inactive) | 2.61 µM (inactive) | 1.98 µM (inactive) | 19.5 µM (inactive) | 2.47 µM (inactive) | 1.88 µM (inactive) | 2.04 µM (inactive) | 1.49 µM (inactive) | 0.594 µM (active) | 2.33 µM (inactive) | 1.57 µM (inactive) | 1.55 µM (inactive) | > 100 µM (inactive) |
| COc1ccc(N2C(=O)C(=O)N(c3ccccc3[N+](=O)[O-])C2=S)cc1 | 35.1 µM (inactive) | 21.7 µM (inactive) | 33 µM (inactive) | 17.1 µM (inactive) | 28.4 µM (inactive) | 30.5 µM (inactive) | 19.6 µM (inactive) | 36.1 µM (inactive) | 30.5 µM (inactive) | 37.9 µM (inactive) | 36.8 µM (inactive) | 18 µM (inactive) | 28.6 µM (inactive) | 17.6 µM (inactive) | 38.4 µM (inactive) | 27 µM (inactive) | 40.5 µM (inactive) | 23.5 µM (inactive) |
| CCOC(=O)C1(C(=O)OCC)C[C@@H](C)[C@@H](O)C1 | > 100 µM (inactive) | > 100 µM (inactive) | > 100 µM (inactive) | > 100 µM (inactive) | > 100 µM (inactive) | > 100 µM (inactive) | > 100 µM (inactive) |  | > 100 µM (inactive) | > 100 µM (inactive) | 72.1 µM (inactive) | > 100 µM (inactive) | > 100 µM (inactive) | > 100 µM (inactive) | > 100 µM (inactive) | > 100 µM (inactive) | > 100 µM (inactive) | > 100 µM (inactive) |
| N#CC(C#N)C1CN2CCC1CC2 (stereo unspecified) | > 100 µM (inactive) | > 100 µM (inactive) | > 100 µM (inactive) | > 100 µM (inactive) | > 100 µM (inactive) | > 100 µM (inactive) |  | > 100 µM (inactive) | > 100 µM (inactive) | > 100 µM (inactive) | > 100 µM (inactive) | 90.4 µM (inactive) | > 100 µM (inactive) | > 100 µM (inactive) | > 100 µM (inactive) | > 100 µM (inactive) | > 100 µM (inactive) | > 100 µM (inactive) |
| CC(C)C(=O)/C=C/S/C=C/C(=O)C(C)C | 34.9 µM (inactive) | > 100 µM (inactive) | 2.53 µM (inactive) | 2.72 µM (inactive) | 2.24 µM (inactive) |  |  |  | 5 µM (inactive) | 3.33 µM (inactive) | 6.7 µM (inactive) | 4.54 µM (inactive) | 1.69 µM (inactive) | 5.83 µM (inactive) | 13.4 µM (inactive) |  |  | 2.83 µM (inactive) |

From ChEMBL document CHEMBL1201862, “PubChem BioAssay data set” (2004)
